# Like-named read-outs stand apart in the source and are kept apart here.
# Columns and labels:
# Experiment in all cases: KinomeScan kinase panel, single concentration 10 µM
# Format in all cases: binding
# KinomeScan kinase panel [1] = target: T1, KinomeScan kinase panel (Homo sapiens, UniProt P19525); conditions: 10 µM
# T1 construct: purchased DiscoveRx (KinomeScan)
# KinomeScan kinase panel [2] = target: T2, KinomeScan kinase panel (Homo sapiens, UniProt P78356); conditions: PIP5K2B, 10 µM; read-out: score (%)
# T2 construct: purchased DiscoveRx (KinomeScan)
# T2 sequence (P78356 1-416): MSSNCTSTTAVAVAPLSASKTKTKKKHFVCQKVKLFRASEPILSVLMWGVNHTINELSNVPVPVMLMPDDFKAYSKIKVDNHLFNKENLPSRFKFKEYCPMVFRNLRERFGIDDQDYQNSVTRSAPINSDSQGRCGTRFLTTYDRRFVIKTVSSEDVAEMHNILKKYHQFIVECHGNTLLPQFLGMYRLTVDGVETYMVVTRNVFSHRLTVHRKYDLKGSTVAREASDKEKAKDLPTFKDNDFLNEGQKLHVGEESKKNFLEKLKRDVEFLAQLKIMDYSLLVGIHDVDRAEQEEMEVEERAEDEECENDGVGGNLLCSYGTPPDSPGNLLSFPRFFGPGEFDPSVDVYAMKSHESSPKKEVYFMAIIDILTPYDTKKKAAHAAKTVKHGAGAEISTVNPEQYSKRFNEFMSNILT
# KinomeScan kinase panel [3] = target: T3, KinomeScan kinase panel (Homo sapiens, UniProt Q04912); conditions: MST1R, 10 µM; read-out: score (%)
# T3 construct: purchased DiscoveRx (KinomeScan)
# KinomeScan kinase panel [4] = target: T4, KinomeScan kinase panel (Homo sapiens, UniProt Q12852); conditions: DLK, 10 µM
# T4 construct: purchased DiscoveRx (KinomeScan)
# T4 sequence (Q12852 1-859): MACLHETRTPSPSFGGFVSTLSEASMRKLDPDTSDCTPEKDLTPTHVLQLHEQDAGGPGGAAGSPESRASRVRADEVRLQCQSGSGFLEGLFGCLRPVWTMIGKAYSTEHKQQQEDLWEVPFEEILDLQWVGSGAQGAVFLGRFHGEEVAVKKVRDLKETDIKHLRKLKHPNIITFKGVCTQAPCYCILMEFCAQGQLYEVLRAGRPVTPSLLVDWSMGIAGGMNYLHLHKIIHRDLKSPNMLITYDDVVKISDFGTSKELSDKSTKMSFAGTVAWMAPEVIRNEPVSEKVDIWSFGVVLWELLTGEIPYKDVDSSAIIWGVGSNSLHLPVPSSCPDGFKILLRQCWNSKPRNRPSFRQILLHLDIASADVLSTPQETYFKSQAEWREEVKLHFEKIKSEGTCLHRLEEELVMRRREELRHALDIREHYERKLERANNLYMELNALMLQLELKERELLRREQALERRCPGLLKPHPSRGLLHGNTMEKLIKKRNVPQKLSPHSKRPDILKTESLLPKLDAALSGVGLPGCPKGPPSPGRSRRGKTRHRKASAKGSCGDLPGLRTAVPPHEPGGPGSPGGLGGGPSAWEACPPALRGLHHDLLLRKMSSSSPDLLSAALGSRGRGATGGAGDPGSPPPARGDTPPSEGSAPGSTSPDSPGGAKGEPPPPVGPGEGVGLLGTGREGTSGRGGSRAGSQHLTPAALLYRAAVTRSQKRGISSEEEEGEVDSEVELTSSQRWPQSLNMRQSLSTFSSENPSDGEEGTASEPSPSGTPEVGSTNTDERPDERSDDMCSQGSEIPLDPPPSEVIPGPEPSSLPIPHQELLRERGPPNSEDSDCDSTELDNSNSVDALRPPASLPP
# KinomeScan kinase panel [5] = target: T5, KinomeScan kinase panel (Homo sapiens, UniProt Q16566); conditions: CAMK4, 10 µM; read-out: score (%)
# T5 construct: purchased DiscoveRx (KinomeScan)
# T5 sequence (Q16566 1-473): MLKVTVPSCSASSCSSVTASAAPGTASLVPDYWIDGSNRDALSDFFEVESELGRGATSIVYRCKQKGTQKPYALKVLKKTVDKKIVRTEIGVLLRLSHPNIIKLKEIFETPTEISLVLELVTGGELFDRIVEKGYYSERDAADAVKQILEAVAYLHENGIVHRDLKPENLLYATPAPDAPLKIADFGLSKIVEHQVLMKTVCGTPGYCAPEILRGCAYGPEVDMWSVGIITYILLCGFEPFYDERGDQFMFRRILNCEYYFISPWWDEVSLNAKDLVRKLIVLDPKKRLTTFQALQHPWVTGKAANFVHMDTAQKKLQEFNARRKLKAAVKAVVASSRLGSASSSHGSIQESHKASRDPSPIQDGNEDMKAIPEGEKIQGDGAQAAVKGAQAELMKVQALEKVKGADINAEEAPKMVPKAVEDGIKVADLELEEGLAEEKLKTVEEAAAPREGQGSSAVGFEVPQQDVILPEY
# KinomeScan kinase panel [6] = target: T6, KinomeScan kinase panel (Homo sapiens, UniProt Q9H093); conditions: 10 µM
# T6 construct: purchased DiscoveRx (KinomeScan)
# T6 sequence (Q9H093 1-628): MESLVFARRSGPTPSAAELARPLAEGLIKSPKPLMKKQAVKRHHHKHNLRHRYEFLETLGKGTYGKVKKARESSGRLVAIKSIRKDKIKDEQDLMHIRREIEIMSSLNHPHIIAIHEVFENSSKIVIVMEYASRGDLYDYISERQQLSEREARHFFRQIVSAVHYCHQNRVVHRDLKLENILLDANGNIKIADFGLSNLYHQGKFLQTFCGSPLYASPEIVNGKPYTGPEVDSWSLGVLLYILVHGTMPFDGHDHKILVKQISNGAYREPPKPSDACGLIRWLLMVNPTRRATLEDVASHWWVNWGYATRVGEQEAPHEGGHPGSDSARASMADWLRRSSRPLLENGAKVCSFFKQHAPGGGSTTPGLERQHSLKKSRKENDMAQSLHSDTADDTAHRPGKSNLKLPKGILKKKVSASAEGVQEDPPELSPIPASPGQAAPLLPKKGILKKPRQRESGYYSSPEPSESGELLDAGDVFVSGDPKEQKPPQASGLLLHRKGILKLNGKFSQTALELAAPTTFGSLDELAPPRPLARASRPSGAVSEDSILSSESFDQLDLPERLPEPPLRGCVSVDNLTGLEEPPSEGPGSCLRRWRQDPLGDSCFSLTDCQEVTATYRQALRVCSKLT
# KinomeScan kinase panel [7] = target: T7, KinomeScan kinase panel (Homo sapiens, UniProt Q9H4B4); conditions: read-out: score (%)
# T7 construct: purchased DiscoveRx (KinomeScan)
# KinomeScan kinase panel [8] = target: T8, KinomeScan kinase panel (Homo sapiens, UniProt Q9HCP0); conditions: CSNK1G1, 10 µM
# T8 construct: purchased DiscoveRx (KinomeScan)
# T8 sequence (Q9HCP0 whole entry): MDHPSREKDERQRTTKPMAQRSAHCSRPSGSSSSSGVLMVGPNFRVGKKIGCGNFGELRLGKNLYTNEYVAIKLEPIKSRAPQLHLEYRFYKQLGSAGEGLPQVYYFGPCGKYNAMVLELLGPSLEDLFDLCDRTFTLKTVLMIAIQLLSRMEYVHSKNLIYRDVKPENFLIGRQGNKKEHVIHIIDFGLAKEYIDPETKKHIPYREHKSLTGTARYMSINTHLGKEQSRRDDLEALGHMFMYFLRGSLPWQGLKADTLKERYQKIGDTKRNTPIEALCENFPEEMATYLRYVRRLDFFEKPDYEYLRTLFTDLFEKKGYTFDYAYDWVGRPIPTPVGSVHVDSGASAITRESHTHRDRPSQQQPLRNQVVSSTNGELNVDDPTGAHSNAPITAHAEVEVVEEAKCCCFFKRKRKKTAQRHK
# T7 sequence (Q9H4B4 whole entry): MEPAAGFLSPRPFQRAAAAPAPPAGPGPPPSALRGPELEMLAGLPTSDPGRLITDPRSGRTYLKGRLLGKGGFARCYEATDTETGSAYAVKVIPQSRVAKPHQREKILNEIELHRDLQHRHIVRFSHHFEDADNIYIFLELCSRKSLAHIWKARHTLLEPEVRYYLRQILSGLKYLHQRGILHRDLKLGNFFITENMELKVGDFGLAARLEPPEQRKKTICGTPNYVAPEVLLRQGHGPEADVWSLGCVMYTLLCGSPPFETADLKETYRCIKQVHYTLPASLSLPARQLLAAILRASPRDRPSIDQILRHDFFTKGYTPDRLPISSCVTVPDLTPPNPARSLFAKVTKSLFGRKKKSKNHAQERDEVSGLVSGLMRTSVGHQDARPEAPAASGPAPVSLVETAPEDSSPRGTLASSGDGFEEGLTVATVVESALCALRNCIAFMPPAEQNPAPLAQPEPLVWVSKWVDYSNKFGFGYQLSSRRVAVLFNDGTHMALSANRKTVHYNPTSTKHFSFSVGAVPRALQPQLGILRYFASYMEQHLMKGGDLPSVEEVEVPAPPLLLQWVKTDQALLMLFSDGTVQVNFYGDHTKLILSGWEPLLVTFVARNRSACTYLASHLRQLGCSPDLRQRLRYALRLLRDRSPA
# T3 sequence (Q04912 25-1400): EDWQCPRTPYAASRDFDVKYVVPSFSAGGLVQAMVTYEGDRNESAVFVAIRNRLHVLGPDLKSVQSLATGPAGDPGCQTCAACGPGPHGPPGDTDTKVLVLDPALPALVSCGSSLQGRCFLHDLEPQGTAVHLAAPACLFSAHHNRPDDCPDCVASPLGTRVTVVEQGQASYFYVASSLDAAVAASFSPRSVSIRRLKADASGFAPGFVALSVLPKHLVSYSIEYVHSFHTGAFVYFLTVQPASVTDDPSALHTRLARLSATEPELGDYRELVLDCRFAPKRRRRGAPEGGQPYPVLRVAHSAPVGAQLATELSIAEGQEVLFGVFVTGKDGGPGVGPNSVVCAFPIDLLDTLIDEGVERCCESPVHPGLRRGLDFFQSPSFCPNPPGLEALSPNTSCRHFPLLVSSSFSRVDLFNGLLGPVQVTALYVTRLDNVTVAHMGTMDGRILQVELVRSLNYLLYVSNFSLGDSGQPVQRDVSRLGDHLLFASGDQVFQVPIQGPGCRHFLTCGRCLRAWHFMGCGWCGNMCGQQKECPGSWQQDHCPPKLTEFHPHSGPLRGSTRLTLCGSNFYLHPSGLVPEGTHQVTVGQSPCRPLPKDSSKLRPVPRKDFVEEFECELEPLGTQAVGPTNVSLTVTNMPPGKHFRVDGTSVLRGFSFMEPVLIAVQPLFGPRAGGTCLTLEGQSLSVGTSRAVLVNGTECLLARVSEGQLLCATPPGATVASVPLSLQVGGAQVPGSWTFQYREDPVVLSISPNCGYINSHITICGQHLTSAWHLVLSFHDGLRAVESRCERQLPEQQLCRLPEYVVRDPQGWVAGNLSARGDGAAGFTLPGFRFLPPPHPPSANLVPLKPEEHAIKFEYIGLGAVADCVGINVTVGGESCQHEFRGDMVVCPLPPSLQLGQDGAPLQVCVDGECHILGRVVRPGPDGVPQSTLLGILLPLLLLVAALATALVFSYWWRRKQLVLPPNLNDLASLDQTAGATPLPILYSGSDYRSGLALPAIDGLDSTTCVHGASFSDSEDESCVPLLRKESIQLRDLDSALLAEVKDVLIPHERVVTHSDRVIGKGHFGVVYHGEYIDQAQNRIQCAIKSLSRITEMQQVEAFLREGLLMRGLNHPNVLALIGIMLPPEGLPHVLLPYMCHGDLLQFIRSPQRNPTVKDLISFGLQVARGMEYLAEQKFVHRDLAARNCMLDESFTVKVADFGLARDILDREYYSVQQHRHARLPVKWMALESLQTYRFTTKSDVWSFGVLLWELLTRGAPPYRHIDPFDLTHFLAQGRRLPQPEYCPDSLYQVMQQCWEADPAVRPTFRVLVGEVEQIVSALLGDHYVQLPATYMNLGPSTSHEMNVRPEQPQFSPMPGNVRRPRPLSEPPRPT
# T1 sequence (P19525 whole entry): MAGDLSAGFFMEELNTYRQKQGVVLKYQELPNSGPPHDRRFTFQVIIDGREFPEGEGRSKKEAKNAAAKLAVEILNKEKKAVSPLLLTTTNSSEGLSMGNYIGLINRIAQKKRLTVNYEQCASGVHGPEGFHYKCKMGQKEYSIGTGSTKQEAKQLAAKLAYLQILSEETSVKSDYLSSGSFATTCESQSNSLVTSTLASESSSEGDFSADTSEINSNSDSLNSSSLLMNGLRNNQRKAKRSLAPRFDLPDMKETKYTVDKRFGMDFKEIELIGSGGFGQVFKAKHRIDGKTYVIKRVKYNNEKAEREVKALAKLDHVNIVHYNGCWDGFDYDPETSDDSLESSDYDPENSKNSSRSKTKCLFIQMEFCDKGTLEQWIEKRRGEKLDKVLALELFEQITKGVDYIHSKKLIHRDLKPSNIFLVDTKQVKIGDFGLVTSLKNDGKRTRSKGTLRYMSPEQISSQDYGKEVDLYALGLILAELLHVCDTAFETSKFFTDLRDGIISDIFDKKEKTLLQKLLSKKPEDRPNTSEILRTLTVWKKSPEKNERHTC
Compound,score (%) (KinomeScan kinase panel [1]; PRKR),remaining binding at 10 µM (KinomeScan kinase panel [2]),remaining binding at 10 µM (KinomeScan kinase panel [3]),score (%) (KinomeScan kinase panel [4]),remaining binding at 10 µM (KinomeScan kinase panel [5]),score (%) (KinomeScan kinase panel [6]; kinase SNARK),"remaining binding at 10 µM (KinomeScan kinase panel [7]; PLK3, 10 µM)",score (%) (KinomeScan kinase panel [8]),score (%) (KinomeScan kinase panel [6]; SNARK),score (%) (KinomeScan kinase panel [1]; kinase PRKR),"remaining binding at 10 µM (KinomeScan kinase panel [7]; kinase PLK3, 10 µM)"
CCN1CCN(Cc2ccc(NC(=O)c3ccc(C)c(NC(=O)c4cncc(-c5cccs5)c4)c3)cc2C(F)(F)F)CC1 [ALW-II-41-27],nb (Hits values higher than 30% were considered negative (no binding: nb)),> 30%,> 30%,28%,> 30%,nb (Hits values higher than 30% were considered negative (no binding: nb)),> 30%,nb (Hits values higher than 30% were considered negative (no binding: nb)),,,
"CCN1CCN(Cc2ccc(NC(=O)c3ccc(C)c(/C=C/c4cnc5[nH]ccc5c4Cl)c3)cc2C(F)(F)F)CC1 [HG-6-63-01, (E)-3-(2-(4-chloro-1H-pyrrolo[2,3-b]pyridin-5-yl)vinyl)-N-(4-((4-ethylpiperazin-1-yl)methyl)-3-(trifluoromethyl)phenyl)-4-methylbenzamide]",nb (Hits values higher than 30% were considered negative (no binding: nb)),5%,> 30%,5.5%,> 30%,,> 30%,nb (Hits values higher than 30% were considered negative (no binding: nb)),nb (Hits values higher than 30% were considered negative (no binding: nb)),,
CCN1CCN(Cc2ccc(NC(=O)c3ccc(C)c(C#Cc4cccnc4)c3)cc2C(F)(F)F)CC1 [XMD15-44],,58%,> 30%,9.8%,> 30%,99%,,nb (Hits values higher than 30% were considered negative (no binding: nb)),,66%,90%
